Format in all cases: cell-based, mouse
The subject of data set [1] is NOS2 mRNA expression in RAW 264.7 cells. Briefly: qRT-PCR of NOS2 mRNA in IL-4/IL-13-stimulated RAW 264.7 cells. Particulars: Mus musculus, RAW264.7, IL-4/IL-13 (20 ng/mL) plus compound 10 μM, 12 h, stimulated control = 100%, mean ± SD, read-out: NOS2 mRNA Relative Expression (%). From the text:
(§1) We first investigated the impacts of a series of commercially available natural pseudolaric acids or their O-pyranosides (Figure 1) on the pro-tumoral phenotype of TAMs, which play a critical role in anti-tumor immune response modulation. […] In contrast, M1-biased macrophages combat tumor growth and bacterial infections by expressing inducible nitric oxide synthase 2 (NOS2), which catalyzes the production of nitric oxide (NO). Recognizing the pivotal roles of ARG1 and NOS2, we utilized these molecules as key biomarkers and effectors for assessing macrophage immune function. In our experiments, the mouse monocyte–macrophage leukemia cell line RAW 264.7 was induced with IL-4/IL-13 to acquire an M2-like pro-tumoral phenotype. Concurrently, the cells were treated with the pseudolaric acid-related natural products 1–7 at a concentration of 10 μM for 12 h. Additionally, PLX3397 was used as a positive control at a concentration of 0.5 μM. […] As shown in Table 1 and Figure S1A, pseudolaric acid B (1), its deacetoxyl analogue 2 (pseudolaric acid C), and β-D-glucoside 7 substantially attenuated the upregulation of ARG1 mRNA expression induced by IL-4/IL-13, with statistically significant effects. In contrast, bis-carboxylic acids analogs 4 (pseudolaric acid C2) and 6 (demethoxydeacetoxypseudolaric acid B) have no significant impact on ARG1 mRNA expression.
(§2) With these carboxylic acid-modified derivatives in hand, we investigated their impact at 10 μM on ARG1 and NOS2 mRNA expression in RAW 264.7 cells pre-stimulated with IL-4/IL-13 to evaluate the effects on the pro-tumor phenotype of macrophages. […] Further removal of one hydroxyl from the glycerol moiety 15 further enhanced the inhibitory effect on ARG1 expression but had no significant impact on NOS2 expression.
(§3) Total RNA was isolated from cells using the EZ-press RNA Purification Kit (EZBioscience, Suzhou, China) and subjected to reverse transcription with the 5×HiScript II qRT SuperMix II (Vazyme, Nanjing, China). PCR was performed with the 2×ChamQ Universal SYBR qPCR Master Mix (Vazyme, Nanjing, China). All primers for qRT-PCR are described in Table S1. The 2^−∆∆Ct method was utilized to calculate the fold change in gene expression, with the expression levels in the stimulated group set as the baseline for normalization.

Another data set has as its system Raw264.7 cells. The experiment in a line: Cell viability (CCK-8) of RAW264.7 cells. Particulars: IL-4/IL-13 plus compound 10 μM, 12 h. How it is done: Cells were seeded in 96-well tissue culture plates. On the next day, cells were exposed to various concentrations of compounds and further cultured for the indicated period. Finally, cell proliferation was determined by using the Cell Counting Kit (CCK-8) (Dojindo, Kumamoto, Japan) assay.
Figure S2. Effects of natural pseudolaric acids 1-4, 6 and their O-pyranosides 5, 7 as well as the derivatives 8-18 o f 1 on Raw264.7 cell viability. Raw264.7 cells were treated with IL-4/IL-13 alone or combined with indicated compounds (10 μM) for 12 h. After incubation, the cell viability was determined using a cell counting kit (CCK-8, Dojindo, Japan) assay.
(1 picture or pasted object on this page, not shown here)

Data set [2] concerns ARG1 mRNA expression in RAW 264.7 cells. The experiment in a line: qRT-PCR of ARG1 mRNA in IL-4/IL-13-stimulated RAW 264.7 cells. Particulars: Mus musculus, RAW264.7, IL-4/IL-13 (20 ng/mL) plus compound 10 μM, 12 h, stimulated control = 100%, mean ± SD, read-out: ARG1 mRNA Relative Expression (%).
From the text: as §1, §2, §3
In general terms: Quantitative PCR measures a nucleic acid by following its amplification.

Data set [3] relates to ARG1, NOS2, CD206 and MHC II mRNA expression in RAW 264.7 cells. Briefly: qRT-PCR of ARG1, NOS2, CD206, MHC II in RAW264.7 cells at multiple concentrations. Particulars: RAW 264.7 cells stimulated with IL-4/IL-13, multiple concentrations, 12 h. How it is done:
We also extended the test to primary murine macrophages derived from bone marrow (BMDMs), which were cultured in vitro with recombinant mouse M-CSF for 6 days. The BMDMs were then stimulated with IL-4/IL-13, leading to their transformation into M2-like pro-tumoral macrophages. This transformation was characterized by an increase in both ARG1 and CD206 expression and a decrease in both NOS2 and MHC II expression. […] Subsequently, we assessed the capacity of compound 12 to inhibit the M2-like polarization of macrophages using CSF-1-differentiated mouse BMDMs. These cells were treated with IL-4 and IL-13 for 48 h, and the expression levels of CD206, an M2-type marker, and CD86, an M1-type marker, were analyzed via flow cytometry. […]
Figure 2 Compound 12 inhibits the M2-like polarized phenotype of macrophages. […] The expression levels of the markers CD206 and CD86 on induced macrophages were determined by flow cytometry, and the mean fluorescence intensity (MFI) was analyzed with FlowJo (C), or the cells were lysed and immunoblotted to detect the indicated proteins (D). […] Data are represented as means ± SD. ^### p < 0.001 vs. non-stimulated control group, * p < 0.05, ** p < 0.01, *** p < 0.001 vs. stimulated control group. p-values were determined using one-way ANOVA.

The text below walks through data of PMC12114375, “Discovery of Hydrazineyl Amide Derivative of Pseudolaric Acid B for Reprogramming Tumor-Associated Macrophages Against Tumor Growth” (Molecules, 2025).

On to `COC(=O)C1=CC[C@@]23CC[C@@H]([C@@](C)(/C=C/C=C(\C)C(=O)O)OC2=O)[C@@]3(OC(C)=O)CC1` [compound 1, pseudolaric acid B], for which the activity at 10 µM in data set [1] was found to be 135 ± 19.5%. The cell viability entry in the data set with Raw264.7 cells is reported as “only a minimal reduction in cell viability”. Also, the mrna remaining at 10 µM in data set [2] came out at 9.9 ± 0.8%. For the same molecule, in data set [3], the “mRNA expression levels of ARG1 and CD206” value is reported as “significantly reduced”; the “mRNA expression levels of NOS2 and MHC II” value was “upregulated the mRNA expression levels of NOS2 and MHC II in a dose-dependent manner”.
